From US6110955A, “Metabolically stabilized oxyalkylene esters and uses thereof” (Beacon Laboratories, Inc., priority 1997, dated 2000)

Columns and labels:
[1] = system: human neuroblastoma cell lines; experiment: Clonogenicity across the neuroblastoma cell lines (summary); assay type: cell-based
Protocol: (§1) Inhibition of cancer cell growth in agar culture--clonogenicity was tested using cell lines as follows:
(§2) Cells were harvested, washed in complete media, and counted.
(§3) After overnight culture, AB or α-methyl-4-(2-methylpropyl)-benzeneacetyloxymethyl butyrate was added at the indicated concentration. The control cells received media alone.

[2] = system: IMR-32; experiment: Clonogenicity in soft agar (growth inhibition); assay type: cell-based, human; conditions: Homo sapiens, read-out: clones relative to media-treated control cultures
Protocol: as §1, §2, §3

[3] = system: SK-N-SH; experiment: Clonogenicity in soft agar (growth inhibition); assay type: cell-based, human; conditions: Homo sapiens, read-out: clones relative to media-treated control cultures
Protocol: as §1, §2, §3

[4] = system: NBL-S; experiment: Clonogenicity in soft agar (growth inhibition); assay type: cell-based, human; conditions: Homo sapiens
Protocol: as §1, §2, §3

[5] = system: NBAS-5; experiment: Clonogenicity in soft agar (growth inhibition); assay type: cell-based, human; conditions: Homo sapiens
Protocol: as §1, §2, §3

[6] = system: β-globin disorders (β-thalassemia and sickle-cell anemia); conditions: β-thalassemia and sickle-cell anemia patients; cited from earlier work
[7] = system: MCF7; experiment: Inhibition of cancer cell growth, sulforhodamine B (SRB) method; assay type: cell-based; conditions: Homo sapiens
Protocol: (§4) Inhibition of cancer cell growth was measured by the sulforhodamine B (SRB) method as described by Monks et al., J. Nat. Canc. Inst., (1991), 83: 757-766, incorporated herein in its entirety. The SRB assay is recognized by the National Institute for Cancer (NCI) as a reliable screen for anticancer drugs and is used by the NCI for this purpose. […] (FIGS. 3A-3D).

[8] = system: CFPAC; experiment: as above; assay type: cell-based; conditions: Homo sapiens
Protocol: as §4

[9] = system: OVCAR-5; experiment: as above; assay type: cell-based; conditions: Homo sapiens
Protocol: as §4

[10] = system: LOX IMVI; experiment: as above; assay type: cell-based; conditions: Homo sapiens
Protocol: as §4

CCCC(=O)O [AB, arginine butyrate, reference compound]
inhibition of clonogenicity (in words) [1]: dose-dependent manner
activity at 100 µM ([2]; IMR-32, 100 μM): 108%
activity at 250 µM ([2]; IMR-32, 250 μM): 104%
activity at 500 µM ([2]; IMR-32, 500 μM): 69 ± 7%
activity at 1000 µM ([2]; IMR-32, 1000 μM): 49%
activity at 2000 µM ([2]; IMR-32, 2000 μM): 21%
activity at 100 µM ([3]; 100 μM): 99 ± 1%
activity at 250 µM ([3]; 250 μM): 81 ± 1%
activity at 500 µM ([3]; 500 μM): 75 ± 9%
activity at 1000 µM ([3]; 1000 μM): 54 ± 2%
activity at 2000 µM ([3]; 2000 μM): 24 ± 1%
IC50 [4]: 701 µM
IC90 [4]: 2000 µM
IC50 ([5]; NBAS-5): 833 µM
activity at 100 µM ([5]; NBAS-5, 100 μM, read-out: clones relative to media-treated control cultures): 85 ± 1%
activity at 250 µM ([5]; NBAS-5, 250 μM, read-out: clones relative to media-treated control cultures): 78 ± 2%
activity at 500 µM ([5]; NBAS-5, 500 μM, read-out: clones relative to media-treated control cultures): 68 ± 2%
activity at 1000 µM ([5]; NBAS-5, 1000 μM, read-out: clones relative to media-treated control cultures): 53%
activity at 2000 µM ([5]; NBAS-5, 2000 μM, read-out: clones relative to media-treated control cultures): 25%
reported side effects [6]: hypokalemia, headache, nausea and vomiting
inhibition at 31.25 pM ([7]; MCF7, dosage 0.03125 nM): 0.3%
inhibition at 62.5 pM ([7]; MCF7, dosage 0.06250 nM): 0.2%
inhibition at 0.000125 µM ([7]; MCF7, dosage 0.12500 nM): 0%
inhibition at 0.00025 µM ([7]; MCF7, dosage 0.25000 nM): 0.1%
inhibition at 0.0005 µM ([7]; MCF7, dosage 0.50000 nM): 0%
inhibition at 0.001 µM ([7]; MCF7, dosage 1.00000 nM): 1.2%
inhibition at 0.002 µM ([7]; MCF7, dosage 2.00000 nM): 1.8%
inhibition at 0.004 µM ([7]; MCF7, dosage 4.00000 nM): 2.2%
inhibition at 31.25 pM ([8]; dosage 0.03125 nM): 6.6%
inhibition at 62.5 pM ([8]; dosage 0.06250 nM): 4.8%
inhibition at 0.000125 µM ([8]; dosage 0.12500 nM): 11.3%
inhibition at 0.00025 µM ([8]; dosage 0.25000 nM): 1%
inhibition at 0.0005 µM ([8]; dosage 0.50000 nM): 1.5%
inhibition at 0.001 µM ([8]; dosage 1.00000 nM): 4.7%
inhibition at 0.002 µM ([8]; dosage 2.00000 nM): 12.8%
inhibition at 0.004 µM ([8]; dosage 4.00000 nM): 16.6%
inhibition at 31.25 pM ([9]; OVCAR-5, dosage 0.03125 nM): 0%
inhibition at 62.5 pM ([9]; OVCAR-5, dosage 0.06250 nM): 0.1%
inhibition at 0.000125 µM ([9]; OVCAR-5, dosage 0.12500 nM): 0.5%
inhibition at 0.00025 µM ([9]; OVCAR-5, dosage 0.25000 nM): 0.3%
inhibition at 0.0005 µM ([9]; OVCAR-5, dosage 0.50000 nM): 1.3%
inhibition at 0.001 µM ([9]; OVCAR-5, dosage 1.00000 nM): 2.5%
inhibition at 0.002 µM ([9]; OVCAR-5, dosage 2.00000 nM): 6.6%
inhibition at 0.004 µM ([9]; OVCAR-5, dosage 4.00000 nM): 29.3%
inhibition at 31.25 pM ([10]; dosage 0.03125 nM): 0%
inhibition at 62.5 pM ([10]; dosage 0.06250 nM): 1.4%
inhibition at 0.000125 µM ([10]; dosage 0.12500 nM): 1.5%
inhibition at 0.00025 µM ([10]; dosage 0.25000 nM): 3.1%
inhibition at 0.0005 µM ([10]; dosage 0.50000 nM): 1.8%
inhibition at 0.001 µM ([10]; dosage 1.00000 nM): 11.8%
inhibition at 0.002 µM ([10]; dosage 2.00000 nM): 10.7%
inhibition at 0.004 µM ([10]; dosage 4.00000 nM): 23.3%
